System: BBMVE cell monolayer challenged with DutchAβ40
Test: Cytokines inhibition study (IL-6, IL-1β, TNF-α ELISA)
Assay type: cell-based, bovine
Settings: 24 hr; TNV=1.74 mg/ml, DutchAβ40=25 μg/ml, cyclophosphamide=3.05 mg/ml
Method: At the end of 24 hour treatment, the luminal or abluminal solutions of the control and the treated Transwells® was assayed for IL-6, IL-1β and TNF-α using cytokine enzyme linked immunosorbent assay (ELISA) kit (Thermo Scientific, Rockford, Ill.). The cytokine levels secreted by the control BBMVE cell monolayer incubated with hanks balanced salt solution (HBSS) were used as the baseline values.

## O=P1(N(CCCl)CCCl)NCCCO1 (stereo not shown) [cyclophosphamide]
  secretion of IL-6, IL-1β and TNF-α triggered by DutchAβ40, luminal side: significant decrease

From patent US9950002B2, “Nanoparticles/theranostic vehicles” (Regents of the University of Minnesota, priority 2013, dated 2018)
